In publication doi:10.1101/307710v1, “Assignment of the resting state of the secondary active transporter BetP by integrating spectroscopic measurements and molecular simulations” (biorxiv, 2018):

Target: T1, BetP (Corynebacterium glutamicum, UniProt P54582)
T1 construct: plasmid pASK-IBA5betP, Strep-Tactin purified from E. coli DH5alpha-T1, reconstituted in E. coli polar lipid liposomes; homotrimer
T1 sequence (P54582 1-595): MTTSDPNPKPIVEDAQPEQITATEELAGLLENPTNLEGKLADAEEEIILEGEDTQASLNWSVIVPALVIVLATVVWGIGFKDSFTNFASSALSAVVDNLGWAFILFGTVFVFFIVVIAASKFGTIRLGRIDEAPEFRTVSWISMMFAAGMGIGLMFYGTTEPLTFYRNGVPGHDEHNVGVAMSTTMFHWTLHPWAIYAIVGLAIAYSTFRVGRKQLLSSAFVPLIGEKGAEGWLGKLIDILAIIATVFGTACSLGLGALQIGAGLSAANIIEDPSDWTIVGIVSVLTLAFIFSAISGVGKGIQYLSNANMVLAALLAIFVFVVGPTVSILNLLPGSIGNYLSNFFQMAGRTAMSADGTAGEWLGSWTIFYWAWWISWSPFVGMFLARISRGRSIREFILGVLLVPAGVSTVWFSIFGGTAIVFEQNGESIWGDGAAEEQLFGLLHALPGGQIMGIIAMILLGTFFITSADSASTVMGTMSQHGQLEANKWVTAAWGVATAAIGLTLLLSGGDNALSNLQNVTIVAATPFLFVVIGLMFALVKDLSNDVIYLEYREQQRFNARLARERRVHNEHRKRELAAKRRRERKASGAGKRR
Experiment: […]-betaine uptake into proteoliposomes
Type: biochemical
Details: labelled compound; 50 uM betaine, 25 mM NaCl, pH 7.5, 0.6 osmol/kg, valinomycin

SMILES: C[N+](C)(C)CC(=O)[O-] [betaine]
- [14C]-betaine uptake into proteoliposomes: the activity of G450R5/S516R5 is only slightly decreased compared to the wildtype
